Source: patent US20160291027A1, “METHODS FOR […] ABILITY OF A Z[…] COMPOUND TO TREAT CANCER” (Eisai R&D Management Co., Ltd., priority 2007, published 2016)

Legend:
Colo-205 = experiment: MTS cell growth inhibition assay; format: cell-based; details: Homo sapiens, 96 h, Colo-205 colorectal, BRAF mutated, four days
Procedure: (§1) Cell growth inhibition following treatment with a zearalenone analog compound, Compound 106, was assessed in a panel of cancerous cell lines from different tissue types, which carry mutations in BRAF and/or RAS. A panel of 21 cell lines was tested with varying concentrations of Compound 106. All assays were performed in a 96 well format. Cell viability was assessed after four days following treatment. Cell viability was assessed with a MTS Assay (CellTiter96®AqueousOne Solution Cell Proliferation Assay, Promega) in a panel of cell lines carrying no mutations or various BRAF (V600E) and/or RAS mutations to determine the effect of BRAF and RAS genotype on drug sensitivity.

HT-29 = experiment: MTS cell growth inhibition assay; format: cell-based; details: Homo sapiens, 96 h, HT-29 colorectal, BRAF mutated, four days
Procedure: as §1

MDA-MB-435 = experiment: MTS cell growth inhibition assay; format: cell-based; details: Homo sapiens, 96 h, MDA-MB-435 breast, BRAF mutated, four days
Procedure: as §1

SK-MEL-3 = experiment: MTS cell growth inhibition assay; format: cell-based; details: Homo sapiens, SK-MEL3, 96 h, SK-MEL-3 melanoma, BRAF mutated, four days
Procedure: as §1

SK-MEL-28 = experiment: MTS cell growth inhibition assay; format: cell-based; details: Homo sapiens, 96 h, SK-MEL-28 melanoma, BRAF mutated, four days
Procedure: as §1

SK-MEL-24 = experiment: MTS cell growth inhibition assay; format: cell-based; details: Homo sapiens, 96 h, SK-MEL-24 melanoma, BRAF mutated, four days
Procedure: as §1

DU4475 = experiment: MTS cell growth inhibition assay; format: cell-based; details: Homo sapiens, DU-4475, 96 h, DU4475 breast, BRAF mutated, four days
Procedure: as §1

[1] = test system: cell lines which carried a BRAF V600E mutation; experiment: Cell growth assay (CellTiter-Glo or methylene blue) in solid cancer cell lines; format: cell-based; details: 96 hours, 0.3-10000 nM
Procedure: In a separate experiment, Compounds 091 and 106 were tested in solid cancer cell lines from different tissue types (shown in FIG. 3B for 21 cell lines for compound 091 and 19 cell lines for compound 106). All cell lines were introduced into 96-well plates and grown in the absence or continuous presence of 0.3-10000 nM of either compound 091 or compound 106 for 96 hours. Cell growth was assessed using a CellTiter-Glo® Luminescent Cell Viability Assay (Promega) or a methylene blue assay. IC50 values were determined as the concentration of a substance which inhibits cell growth by 50% compared to untreated cell populations.

[2] = test system: LOX human melanoma xenografts; experiment: Subcutaneous LOX melanoma xenograft model; format: in vivo, mice
Procedure: The purpose of this study was to investigate anticancer activity of Compound 106 in a LOX human melanoma xenograft model. LOX human melanoma cells, which carry a BRAF (V600E) mutation, were obtained from the DCTD Tumor Repository (Frederick, Md.). Cells were grown in monolayer cultures in T225 flask with RPMI-1640 growth media at 37° C. in a 5% CO2 humidified incubator. Cells were further cultivated in T225 flasks for the in vivo study. On the day of subcutaneous (s.c.) injections of the cells, growth medium was removed, flasks were washed with PBS, and cells were collected with trypsinization. Cells were washed and centrifuged for 3 minutes, and then resuspended in ice-cold PBS.
Female athymic NU/NU mice were inoculated s.c. with 1×10^6 LOX human melanoma cells. Those animals that developed tumors of approximately 150 mm^3 were selected and randomized to five groups. The study consisted of a vehicle-treated group and four drug-treated groups of 8 mice per group for a total of 40 mice on the first day of treatment. All treatments were initiated on day 6. Compound 106 was administered intravenously (i.v.) on a Q4D×3 (days 6, 10, and 14) dosing schedule at dosages of 5, 10, 20 and 40 mg/kg with a volume of injection of 0.1 mL per 10 g body weight. The control group was treated with vehicle (20% Captisol in water) alone.
The s.c. tumor volumes were measured and animals were weighed twice weekly starting with the first day of treatment. Tumor volume and relative body weight (RBW) were determined as described in Example 12.
The study was terminated fifty-nine days after cancer cell transplantation. For each Compound 106 treatment group, measurements were also terminated when mean tumor volume reached two doublings (4-fold tumor volume) from the first day of treatment.
Animals were treated intravenously on days 6, 10, and 14 (Q4D×3; indicated by arrows in FIG. 11). Tumor measurements on tumor bearing mice in all surviving groups were stopped on day 37. Then, tumor measurements were continued for tumor-free mice in the 10 mg/kg (1/8), 20 mg/kg (5/8), and 40 mg/kg (7/8) Compound 106 treatment groups. The study was terminated on day 59. Asterisks (*) indicate P<0.05 vs. control group.

Compound: CCNc1cc(O)c2c(c1)/C=C/C[C@H](O)[C@H](O)C(=O)/C=C\[C@@H](C)[C@H](C)OC2=O [Compound 106]
- IC50 (Colo-205): < 100 nM
- IC50 (HT-29): < 100 nM
- IC50 (MDA-MB-435): < 100 nM
- IC50 (SK-MEL-3): < 100 nM
- IC50 (SK-MEL-28): < 100 nM
- IC50 (SK-MEL-24): < 100 nM
- IC50 (DU4475): < 100 nM
- Sensitivity of BRAF V600E cell lines (concentration range) [1]: low-nM or sub-μM concentration range
- Tumor-free animals at the end of the study on day 59 ([2]; 10 mg/kg i.v. Q4D×3): 1/8 and one
- Tumor-free animals at the end of the study on day 59 ([2]; 20 mg/kg i.v. Q4D×3): 5/8 and five
- Tumor-free animals at the end of the study on day 59 ([2]; 40 mg/kg i.v. Q4D×3): 7/8 and seven
- Anticancer activity (tumor volume vs. control group) ([2]; 10, 20, and 40 mg/kg i.v. Q4D×3): statistically significant anticancer activity
